In article PMC8119466, “A screen of FDA-approved drugs identifies inhibitors of protein tyrosine phosphatase 4A3 (PTP4A3 or PRL-3)” (Scientific Reports, 2021):
Like-named read-outs stand apart in the source and are kept apart here.

Assays:
HEK293T cells [1] = experiment: Click-IT Edu cell proliferation assay, HEK293T; assay type: cell-based, human; details: 100 µM Salirasib or 25 µM Candesartan, 24 and 48 hr
Method: (§1) The cell proliferation assay was performed using the Click-IT Edu cell proliferation kit from (Thermo Fisher, Cat # C10419) according to the manufacturer’s protocol. Briefly, HEK293T, HCT116 and SW480 cells were plated in 6 well dishes at 4 × 10^5 cell seeding density and treated with DMSO, Candesartan and Salirasib at the indicated concentrations. Edu was added 2 h prior to collecting the cells at 24 h and 48 h time points and the assay was performed according to the instructions from the manual. Flow cytometry with AlexaFluor647 conjugated azide dye was used to determine the cellular proliferation and DAPI was used for the DNA content.

recombinant PRL-1 = molecular target: T1, recombinant PRL-1 (Homo sapiens, UniProt Q93096); experiment: In vitro phosphatase assay (DiFMUP hydrolysis), PRL-1; assay type: biochemical; details: for % Phosphatase Activity (compared to DMSO) PRL-1: FDA-approved drug screen; for IC50: DiFMUP at KM, read-out: Calculated IC50, PRL-1 phosphatase activity
T1 construct: 6xHis (N, cleaved yes); made in house; host or cells: E. coli One Shot BL21 Star
T1 sequence (Q93096 1-173): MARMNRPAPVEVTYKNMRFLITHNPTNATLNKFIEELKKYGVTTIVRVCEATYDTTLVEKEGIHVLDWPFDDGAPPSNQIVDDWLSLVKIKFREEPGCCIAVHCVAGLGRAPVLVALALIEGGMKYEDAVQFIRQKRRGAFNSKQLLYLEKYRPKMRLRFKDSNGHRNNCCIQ

HCT116 cells [2] = experiment: Annexin V staining, HCT116; assay type: cell-based, human; details: HCT-116; 100 µM Salirasib or 25 µM Candesartan; 24 and 48 hr
Method: (§2) HEK293T, HCT116, and SW480 cells were plated in 6 well dishes at 4 × 10^5 cell seeding density and treated with DMSO, Candesartan and Salirasib at the indicated concentrations. Cells were collected at 24 h and 48 h time points and the AnnexinV staining was performed according to the instructions from the manual (Thermo Fisher, Cat # 00-0055-56). Flow cytometry with AnnexinV-FITC conjugated antibody (Thermo Fisher, Cat # A13199) was used to determine the population of cells incorporating Annexin V and PI was used for the DNA content.

TCPTP = molecular target: T2, TCPTP (Homo sapiens, UniProt P17706); experiment: PhosphataseProfiler (Eurofins) selectivity panel; assay type: biochemical; details: 25µM
T2 construct: purchased Eurofins PP260

ACP1 (LMPTP-A) = molecular target: T3, ACP1 (LMPTP-A) (Homo sapiens, UniProt P24666); experiment: PhosphataseProfiler (Eurofins) selectivity panel; assay type: biochemical; details: 25µM
T3 construct: purchased Eurofins PP260
Method: Briefly, protein was diluted in reaction buffer and allowed to incubate at 4 °C for 20 min to allow for full reduction of the active site. DiFMUP, drug, and protein were added, and plates were incubated for 20 min at room temperature. Fluorescence intensities were measured on a Cytation 5 plate reader (Biotek) at an EX:360 nm and EM:460 nm. […] Inhibition selectivity for PRLs over a panel of other phosphatases was determined using PhosphataseProfiler (Eurofins, Cat # PP260).

Lambda PP = molecular target: T4, Lambda PP (Escherichia phage lambda, UniProt P03772); experiment: PhosphataseProfiler (Eurofins) selectivity panel; assay type: biochemical; details: 25µM
T4 construct: purchased Eurofins PP260
Method: (§3) In 384 well plates, 2.5 μM recombinant PRL-1, PRL-2, or PRL-3 was combined with DiFUMP (Life Technologies, Cat # E12020) at the KM of each protein in reaction buffer (20 mM Tris–Cl, pH 7.5, 150 mM NaCl, 10 mM DTT) as previously reported. Briefly, protein was diluted in reaction buffer and allowed to incubate at 4 °C for 20 min to allow for full reduction of the active site. DiFMUP, drug, and protein were added, and plates were incubated for 20 min at room temperature. Fluorescence intensities were measured on a Cytation 5 plate reader (Biotek) at an EX:360 nm and EM:460 nm. Data were normalized to vehicle control and IC50 values were calculated on GraphPad Prism version 8. Inhibition selectivity for PRLs over a panel of other phosphatases was determined using PhosphataseProfiler (Eurofins, Cat # PP260).

PTPMEG = molecular target: T5, PTPMEG (Homo sapiens, UniProt P29074); experiment: PhosphataseProfiler (Eurofins) selectivity panel; assay type: biochemical; details: 25µM
T5 construct: purchased Eurofins PP260
Method: as §3

CD45 = molecular target: T6, CD45 (Homo sapiens, UniProt P08575); experiment: PhosphataseProfiler (Eurofins) selectivity panel; assay type: biochemical; details: CD45, 25µM
T6 construct: purchased Eurofins PP260
Method: as §3

PTPMEG2 = molecular target: T7, PTPMEG2 (Homo sapiens, UniProt P43378); experiment: PhosphataseProfiler (Eurofins) selectivity panel; assay type: biochemical; details: PTPMEG2, 25µM
T7 construct: purchased Eurofins PP260
Method: as §3

Yoph = molecular target: T8, Yoph (Yersinia enterocolitica, UniProt P15273); experiment: PhosphataseProfiler (Eurofins) selectivity panel; assay type: biochemical; details: 25µM
T8 construct: purchased Eurofins PP260
Method: as §3

PP2A = experiment: PhosphataseProfiler (Eurofins) selectivity panel; assay type: biochemical; details: 25µM
Method: as §3

MKP5 = molecular target: T9, MKP5 (Homo sapiens, UniProt Q9Y6W6); experiment: PhosphataseProfiler (Eurofins) selectivity panel; assay type: biochemical; details: MKP5, 25µM
T9 construct: purchased Eurofins PP260

HEK293T cells [3] = experiment: Annexin V staining, HEK293T; assay type: cell-based, human; details: 100 µM Salirasib or 25 µM Candesartan, 24 and 48 hr
Method: as §2

HCT116 cells [4] = experiment: Click-IT Edu cell proliferation assay, HCT116; assay type: cell-based, human; details: HCT-116; 100 µM Salirasib or 25 µM Candesartan; 24 and 48 hr
Method: as §1

SW480 cells = experiment: Annexin V staining, SW480; assay type: cell-based, human; details: 100 µM Salirasib or 25 µM Candesartan, 24 and 48 hr
Method: as §2

SHP1 = molecular target: T10, SHP1 (Homo sapiens, UniProt P29350); experiment: PhosphataseProfiler (Eurofins) selectivity panel; assay type: biochemical; details: SHP1, 25µM
T10 construct: purchased Eurofins PP260
T10 sequence (P29350 whole entry): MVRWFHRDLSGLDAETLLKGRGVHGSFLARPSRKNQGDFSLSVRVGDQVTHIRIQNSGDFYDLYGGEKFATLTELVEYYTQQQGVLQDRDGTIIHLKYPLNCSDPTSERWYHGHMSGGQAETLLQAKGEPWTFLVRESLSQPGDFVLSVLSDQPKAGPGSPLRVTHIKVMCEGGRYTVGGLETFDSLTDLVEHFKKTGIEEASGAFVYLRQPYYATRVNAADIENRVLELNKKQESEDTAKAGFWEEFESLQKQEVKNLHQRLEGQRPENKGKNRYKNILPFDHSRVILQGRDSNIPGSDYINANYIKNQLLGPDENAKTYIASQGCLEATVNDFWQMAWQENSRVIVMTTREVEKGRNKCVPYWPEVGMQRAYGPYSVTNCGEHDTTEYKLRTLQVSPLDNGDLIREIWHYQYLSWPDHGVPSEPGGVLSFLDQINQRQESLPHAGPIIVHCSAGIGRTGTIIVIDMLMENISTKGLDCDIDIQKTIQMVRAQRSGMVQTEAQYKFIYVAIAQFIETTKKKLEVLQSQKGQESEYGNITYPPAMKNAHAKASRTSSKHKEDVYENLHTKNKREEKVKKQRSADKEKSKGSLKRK

T9 sequence (Q9Y6W6 whole entry): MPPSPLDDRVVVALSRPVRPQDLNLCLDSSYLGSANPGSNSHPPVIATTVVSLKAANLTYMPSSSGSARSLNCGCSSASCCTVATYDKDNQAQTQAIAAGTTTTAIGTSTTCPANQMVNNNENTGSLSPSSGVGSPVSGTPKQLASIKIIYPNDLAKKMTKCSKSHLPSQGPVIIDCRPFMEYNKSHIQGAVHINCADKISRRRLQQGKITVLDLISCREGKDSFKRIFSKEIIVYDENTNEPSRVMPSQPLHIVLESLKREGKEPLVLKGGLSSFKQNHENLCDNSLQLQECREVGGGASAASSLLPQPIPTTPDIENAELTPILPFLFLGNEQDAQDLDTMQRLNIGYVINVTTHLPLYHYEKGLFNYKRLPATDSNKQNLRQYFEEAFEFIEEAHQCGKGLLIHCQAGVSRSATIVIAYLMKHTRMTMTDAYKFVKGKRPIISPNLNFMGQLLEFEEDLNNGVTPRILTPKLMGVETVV
T5 sequence (P29074 whole entry): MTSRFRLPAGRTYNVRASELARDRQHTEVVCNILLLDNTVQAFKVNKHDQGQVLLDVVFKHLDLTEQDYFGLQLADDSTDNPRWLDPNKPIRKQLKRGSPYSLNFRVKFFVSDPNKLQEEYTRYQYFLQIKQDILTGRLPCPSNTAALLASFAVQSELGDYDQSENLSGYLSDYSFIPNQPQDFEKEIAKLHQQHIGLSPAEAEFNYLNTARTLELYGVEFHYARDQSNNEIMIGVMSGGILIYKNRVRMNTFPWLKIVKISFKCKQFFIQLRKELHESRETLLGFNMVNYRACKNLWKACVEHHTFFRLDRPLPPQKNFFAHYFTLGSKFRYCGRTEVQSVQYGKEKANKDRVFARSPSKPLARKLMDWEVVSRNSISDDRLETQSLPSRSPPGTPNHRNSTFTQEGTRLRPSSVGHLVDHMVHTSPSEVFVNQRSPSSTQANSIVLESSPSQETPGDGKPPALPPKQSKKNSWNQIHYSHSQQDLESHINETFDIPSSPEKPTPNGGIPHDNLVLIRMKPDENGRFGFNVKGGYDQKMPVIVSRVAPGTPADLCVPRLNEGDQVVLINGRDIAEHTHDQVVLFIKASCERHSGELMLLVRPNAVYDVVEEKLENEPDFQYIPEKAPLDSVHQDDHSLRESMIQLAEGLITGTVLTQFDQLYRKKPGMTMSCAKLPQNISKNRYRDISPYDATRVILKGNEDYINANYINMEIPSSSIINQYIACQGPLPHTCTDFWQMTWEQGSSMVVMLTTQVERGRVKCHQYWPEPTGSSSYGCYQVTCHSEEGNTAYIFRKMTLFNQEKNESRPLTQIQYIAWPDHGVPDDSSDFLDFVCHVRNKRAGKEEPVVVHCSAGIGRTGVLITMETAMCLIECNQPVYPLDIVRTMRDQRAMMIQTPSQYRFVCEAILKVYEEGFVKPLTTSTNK
T7 sequence (P43378 whole entry): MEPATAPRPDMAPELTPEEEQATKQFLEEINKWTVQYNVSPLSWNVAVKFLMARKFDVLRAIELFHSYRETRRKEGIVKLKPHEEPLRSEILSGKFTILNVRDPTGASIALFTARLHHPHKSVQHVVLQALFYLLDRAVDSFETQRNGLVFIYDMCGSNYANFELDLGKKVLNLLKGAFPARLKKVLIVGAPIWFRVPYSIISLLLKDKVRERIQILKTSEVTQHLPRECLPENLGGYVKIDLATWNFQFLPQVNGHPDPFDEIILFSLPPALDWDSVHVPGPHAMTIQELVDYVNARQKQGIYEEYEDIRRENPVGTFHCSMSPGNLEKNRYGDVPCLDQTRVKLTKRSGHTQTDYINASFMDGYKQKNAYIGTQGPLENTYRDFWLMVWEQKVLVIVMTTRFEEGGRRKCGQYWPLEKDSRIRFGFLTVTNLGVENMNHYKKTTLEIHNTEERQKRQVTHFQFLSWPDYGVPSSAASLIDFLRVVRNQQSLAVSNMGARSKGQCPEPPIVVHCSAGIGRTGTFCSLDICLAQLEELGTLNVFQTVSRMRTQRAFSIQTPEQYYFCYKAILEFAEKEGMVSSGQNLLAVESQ
T2 sequence (P17706 whole entry): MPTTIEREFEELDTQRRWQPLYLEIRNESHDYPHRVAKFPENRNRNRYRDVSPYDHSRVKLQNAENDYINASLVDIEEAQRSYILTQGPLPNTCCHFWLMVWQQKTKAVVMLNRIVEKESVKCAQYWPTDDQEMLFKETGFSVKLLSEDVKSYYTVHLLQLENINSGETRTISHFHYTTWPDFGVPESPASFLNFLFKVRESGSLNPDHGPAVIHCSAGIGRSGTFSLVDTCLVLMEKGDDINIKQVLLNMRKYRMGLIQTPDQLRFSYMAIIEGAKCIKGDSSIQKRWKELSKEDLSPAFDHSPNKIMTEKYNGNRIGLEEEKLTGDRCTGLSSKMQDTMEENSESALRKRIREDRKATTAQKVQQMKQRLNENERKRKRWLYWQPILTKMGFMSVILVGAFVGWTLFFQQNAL
T3 sequence (P24666 whole entry): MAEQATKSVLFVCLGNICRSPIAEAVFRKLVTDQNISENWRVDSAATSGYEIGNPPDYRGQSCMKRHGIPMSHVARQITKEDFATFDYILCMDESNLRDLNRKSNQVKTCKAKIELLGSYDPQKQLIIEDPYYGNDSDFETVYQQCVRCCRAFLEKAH
T6 sequence (P08575 26-1306): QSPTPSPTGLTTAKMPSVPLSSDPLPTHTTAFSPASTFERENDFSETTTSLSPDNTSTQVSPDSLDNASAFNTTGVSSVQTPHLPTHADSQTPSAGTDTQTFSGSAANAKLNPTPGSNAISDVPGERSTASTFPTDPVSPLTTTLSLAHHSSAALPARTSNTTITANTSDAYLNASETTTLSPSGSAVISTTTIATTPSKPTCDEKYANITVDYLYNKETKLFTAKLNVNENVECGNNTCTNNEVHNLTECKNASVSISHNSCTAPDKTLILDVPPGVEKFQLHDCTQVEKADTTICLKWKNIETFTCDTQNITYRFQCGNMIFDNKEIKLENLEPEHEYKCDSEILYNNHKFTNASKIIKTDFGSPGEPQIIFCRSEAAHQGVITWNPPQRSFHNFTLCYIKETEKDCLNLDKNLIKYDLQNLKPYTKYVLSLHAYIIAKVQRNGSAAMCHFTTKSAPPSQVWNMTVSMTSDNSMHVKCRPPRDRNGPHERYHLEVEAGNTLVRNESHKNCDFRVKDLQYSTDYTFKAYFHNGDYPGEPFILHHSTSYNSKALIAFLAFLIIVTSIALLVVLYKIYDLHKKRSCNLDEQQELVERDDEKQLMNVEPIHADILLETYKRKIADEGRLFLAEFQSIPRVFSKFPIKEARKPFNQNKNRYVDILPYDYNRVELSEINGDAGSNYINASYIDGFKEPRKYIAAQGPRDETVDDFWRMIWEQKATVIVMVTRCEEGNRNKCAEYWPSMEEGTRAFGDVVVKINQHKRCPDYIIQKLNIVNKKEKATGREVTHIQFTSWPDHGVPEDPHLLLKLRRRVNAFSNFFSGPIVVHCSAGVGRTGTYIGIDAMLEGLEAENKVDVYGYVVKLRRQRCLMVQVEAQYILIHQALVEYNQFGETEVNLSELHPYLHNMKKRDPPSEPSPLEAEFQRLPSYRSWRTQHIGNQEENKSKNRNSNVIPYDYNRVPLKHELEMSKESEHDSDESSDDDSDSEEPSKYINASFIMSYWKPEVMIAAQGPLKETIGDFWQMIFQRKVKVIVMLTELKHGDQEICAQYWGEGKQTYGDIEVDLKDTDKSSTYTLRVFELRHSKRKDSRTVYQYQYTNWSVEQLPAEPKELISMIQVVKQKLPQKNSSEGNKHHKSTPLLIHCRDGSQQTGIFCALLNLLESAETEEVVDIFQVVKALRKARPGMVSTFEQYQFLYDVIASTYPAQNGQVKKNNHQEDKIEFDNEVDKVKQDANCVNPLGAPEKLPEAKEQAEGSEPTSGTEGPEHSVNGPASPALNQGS
T4 sequence (P03772 whole entry): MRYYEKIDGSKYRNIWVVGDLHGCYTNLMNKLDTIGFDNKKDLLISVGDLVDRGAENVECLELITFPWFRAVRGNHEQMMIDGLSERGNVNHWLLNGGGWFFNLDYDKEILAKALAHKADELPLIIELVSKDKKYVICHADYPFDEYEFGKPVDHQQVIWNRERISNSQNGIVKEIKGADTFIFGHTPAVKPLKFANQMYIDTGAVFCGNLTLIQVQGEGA

SMILES	cell cycle (EdU staining) (HEK293T cells [1])	% Phosphatase Activity (compared to DMSO) PRL-1 (recombinant PRL-1) [%]	% Phosphatase Activity (compared to DMSO) PRL-1 (recombinant PRL-1; listed as Candesartan Cilexetil) [%]	IC50 (recombinant PRL-1; […] protein) [µM]	apoptosis (AnnexinV plus propidium iodide) (HCT116 cells [2])	Percent Phosphatase Activity (compared to DMSO) (TCPTP) [%]	Percent Phosphatase Activity (compared to DMSO) (ACP1 (LMPTP-A)) [%]	Percent Phosphatase Activity (compared to DMSO) (Lambda PP) [%]	Percent Phosphatase Activity (compared to DMSO) (PTPMEG) [%]	Percent Phosphatase Activity (compared to DMSO) (CD45) [%]	Percent Phosphatase Activity (compared to DMSO) (PTPMEG2) [%]	Percent Phosphatase Activity (compared to DMSO) (Yoph) [%]	Percent Phosphatase Activity (compared to DMSO) (PP2A) [%]	Percent Phosphatase Activity (compared to DMSO) (MKP5) [%]	apoptosis (AnnexinV plus propidium iodide) (HEK293T cells [3])	cell cycle (EdU staining) (HCT116 cells [4])	apoptosis (AnnexinV plus propidium iodide) (SW480 cells)	Percent Phosphatase Activity (compared to DMSO) (SHP1) [%]	IC50 (recombinant PRL-1; 2.5 µM protein) [µM]
CCOc1nc2cccc(C(=O)O)c2n1Cc1ccc(-c2ccccc2-c2nnn[nH]2)cc1 [Candesartan]	did not significantly impact	106	6.33	69 ± 8	did not significantly impact	128	97	107	109	100	97	112	110	99	did not significantly impact	did not significantly impact	did not significantly impact	116	–
CC(C)=CCC/C(C)=C/CC/C(C)=C/CSc1ccccc1C(=O)O [Salirasib]	did not significantly impact	26	–	–	–	118	96	112	107	102	102	–	107	106	–	did not significantly impact	–	113	53 ± 5
